In publication PMC2632761 (Journal of biomolecular screening, 2009):
Where two headings read alike, the source gives them in different places.

Experiments:
hPPARγ = target: T1, hPPARγ (Homo sapiens, UniProt P37231); test: PPARγ SPA ligand competition binding assay
T1 sequence (P37231 238-503 limits assumed): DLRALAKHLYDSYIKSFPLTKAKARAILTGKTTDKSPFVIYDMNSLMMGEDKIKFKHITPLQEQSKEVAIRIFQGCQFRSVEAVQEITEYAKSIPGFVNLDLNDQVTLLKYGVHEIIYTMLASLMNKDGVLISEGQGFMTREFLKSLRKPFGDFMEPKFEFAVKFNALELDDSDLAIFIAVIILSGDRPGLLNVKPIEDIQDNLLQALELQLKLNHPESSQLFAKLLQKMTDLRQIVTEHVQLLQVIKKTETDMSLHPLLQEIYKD

[1] = target: T2, AR-LBD (androgen receptor) (Pan troglodytes, UniProt O97775); test: AR SPA ligand competition binding assay
T2 sequence (O97775 655-911 limits assumed): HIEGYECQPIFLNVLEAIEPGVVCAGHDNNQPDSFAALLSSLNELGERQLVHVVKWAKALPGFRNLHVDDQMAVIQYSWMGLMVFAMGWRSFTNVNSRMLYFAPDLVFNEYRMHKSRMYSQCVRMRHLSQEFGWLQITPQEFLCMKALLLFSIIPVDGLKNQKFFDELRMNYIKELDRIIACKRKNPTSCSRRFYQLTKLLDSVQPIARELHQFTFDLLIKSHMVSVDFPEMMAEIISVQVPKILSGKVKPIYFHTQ

hTRβ = target: T3, hTRβ (Homo sapiens, UniProt P10828); test: TRβ SPA ligand competition binding assay
T3 sequence (P10828 217-461 limits assumed): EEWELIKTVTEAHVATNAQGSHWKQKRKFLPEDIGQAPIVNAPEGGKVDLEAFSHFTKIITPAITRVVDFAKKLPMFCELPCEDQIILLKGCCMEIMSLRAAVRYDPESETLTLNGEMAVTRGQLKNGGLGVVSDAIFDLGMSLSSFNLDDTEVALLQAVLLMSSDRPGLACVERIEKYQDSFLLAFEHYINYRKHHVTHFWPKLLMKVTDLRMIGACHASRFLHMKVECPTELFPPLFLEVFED

hTRα = target: T4, hTRα (Homo sapiens, UniProt P10827); test: TRα SPA ligand competition binding assay
T4 sequence (P10827 148-410 isoform P10827-2 limits assumed): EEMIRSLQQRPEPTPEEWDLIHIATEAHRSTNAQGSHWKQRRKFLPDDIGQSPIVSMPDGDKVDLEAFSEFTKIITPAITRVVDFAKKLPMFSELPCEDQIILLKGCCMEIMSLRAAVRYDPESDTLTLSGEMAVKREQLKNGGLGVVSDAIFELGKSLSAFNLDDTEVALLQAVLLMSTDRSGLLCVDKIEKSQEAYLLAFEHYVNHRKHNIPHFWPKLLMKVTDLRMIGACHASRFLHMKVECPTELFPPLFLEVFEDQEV

CCCCC/C=C\C/C=C\C/C=C\C/C=C\CCCC(=O)O [Arachidonic Acid] was tested, and the IC50 (hPPARγ) was 4.2 ± 0.53 µM.

O=C(Nc1ccccc1)c1cc([N+](=O)[O-])ccc1Cl [GW9662] gave an IC50 (hPPARγ; read-out: IC50 PPARγ, SPA competition, 40 nM [3H]-Rosiglitazone) of 0.23 ± 0.02 µM.

Molecule CC(C)(O)C(=O)Nc1ccc([N+](=O)[O-])c(C(F)(F)F)c1 [Hydroxyflutamide] has an IC50 [1] of 33 ± 8 µM.

Work on CCCCC/C=C\C/C=C\CCCCCCCC(=O)O [Lineolic Acid] yielded an IC50 (hPPARγ) of 3.8 ± 0.49 µM.

With C[C@]1(O)CC[C@H]2[C@@H]3CCC4=CC(=O)CCC4=C3C=C[C@@]21C [Methyltrienolone (R1881), Methyltrienolone] the IC50 ([1]; IC50 AR) was 0.11 ± 0.02 µM.

O=C(O)c1cc(I)c(Oc2ccc(O)c(I)c2)c(I)c1 [T3Bz, 4-(4'-Hydroxy-3'-iodophenoxy)-3,5-diiodo-benzoic acid] showed an IC50 (hTRβ) of 10 ± 4 µM and an IC50 (hTRα) of 12 ± 2 µM.

Work on O=C(O)Cc1cc(I)c(Oc2cc(I)c(O)c(I)c2)c(I)c1 [T4Ac, 3,3’,5,5’-tetraiodothyroacetic acid] yielded an IC50 (hTRβ; read-out: IC50 TRβ, SPA competition, 1 nM [125I]-T3) of 5 ± 2 µM and an IC50 (hTRα; read-out: IC50 TRα, SPA competition, 1 nM [125I]-T3) of 10 ± 2 µM.
